From US20040115160A1, “Quaternary ammonium esters for disinfection and preservation” (priority 2002, published 2004)
Structures can show the parent of a compound that is named as a salt.

Assays:
[1] = system: Acanthamoeba polyphaga strain Ros cysts; test: Acanthamoeba contact lens disinfectant challenge test assay; type: cell-based; settings: 25 ppm
Procedure: Acanthamoeba polyphaga strain Ros were used in this study. Trophozoites were maintained at 30° C. in an axenic broth medium composed of 20.0 g Biosate™ (Becton Dickinson, United Kingdom), 5.0 g glucose, 0.3 g KH2PO4, 10 μg vitamin B12 and 15.0 mg L-methionine per litre of deionized water. The pH was adjusted to 6.5-6.6 with 1 M NaOH before autoclaving at 121° C. for 12 minutes. Penicillin and streptomycin were added to a final concentration of 150 μ/ml before use.
Cysts were prepared from trophozoite cultures using the axenic medium supplemented with 50 mM MgCl2. The encystment medium was inoculated with approximately 2×10^5 /ml trophoxoites for culture at 30° C. in a shaking incubator (100 rpm) for 7 days. Cells were enumerated using haemocytometer counting.
The challenge test assay protocol, as described by R. Hughes and S. Kilvington, Comparison of Hydrogen Peroxide Contact Lens Disinfection Systems and Solutions Against Acanthamoeba Polyphaga, Antimicrob. Agents Chemother. 45: 2038-2043, (2001), is set forth in detail below. The number of surviving organisms was calculated as described by L. J. Reed and H. Muench, A Simple Method for Estimating Fifty Percent Endpoints, Am. J. Hyg., 27: 493-497, (1938). Statistical analysis of the data was by One Way Analysis Of Variance (ANOVA).
1. Fifty ml polypropylene centrifuge tubes were aged overnight with 15 ml of disinfectant solution, i.e., ReNue™ 02 (Bausch & Lomb, Rochester, N.Y.). The tubes were then drained, the disinfectant solution discarded, and refilled with 10 ml of fresh disinfectant solution for testing.
2. To a flat-bottomed, 96 well microtitre plate having 8 columns labelled “A” through “H”, 180 μl of neutralizer, i.e., 0.1 percent Tween™ 80 (Baker, Inc., Phillipsburg, N.J.) in one-quarter strength Ringer's solution for biguanide based disinfectants, was added to the outer wells of columns A and H. 180 μl of one-quarter strength Ringer's solution was then added to the remaining inner wells of columns B through G.
3. Amoebae were adjusted to 5×10^6 /ml in one-quarter strength Ringer's solution and 100 μl (5×10^5) was added to 10 ml of disinfectant (5×10^4 /ml) or saline control.
4. At time intervals of 0, 1, 2, 3, 4, 6 and 24 hours:
i. vortexed tubes 5 seconds;
ii. in quadruplet, removed 20 μl (1000 cells) and added to neutralizer wells for the given time-point (i.e., column A, rows 9-12) and made serial 10-fold dilutions across the microtitre plate (i.e., to column D, rows 9-12); and
iii. repeated for each time point.
5. One drop of live E. coli from 3 ml pastette (25 μl of approximately 5×10^7 bacteria/ml) was then added to each well.
6. The plate was then incubated at 32° C. for up to 7 days.
7. The plate was inspected daily for 7 days for the presence of amoebal growth, either trophozoite replication or excystment and trophozoite replication, in the wells.
8. The number of surviving organisms was then estimated at each time interval by Reed and Muench computation and set forth below in Table 3.

SMILES	melting point	Amoebae Log Kill, Cysts ([1]; 1 Hr.)	Amoebae Log Kill, Cysts ([1]; 4 Hr.)
CCCCCCCCCCCCCC(=O)OCCC[N+](C)(C)CCC (as salt: iodide) [Compound 9, N-myristoyloxypropyl-N,N-dimethyl-N-propylammonium iodide]	80 to 82 °C		
CCCCCCCCCCCCCC(=O)OCCC[N+](C)(C)CCCC (as salt: iodide) [Compound 10, N-myristoyloxypropyl-N-butyl-N,N-dimethylammonium iodide]	87 to 89 °C		
CCCCCCCCCCCCCC(=O)OCCC[N+](C)(C)CCCCC (as salt: iodide) [Compound 11, N-myristoyloxypropyl-N,N-dimethyl-N-pentylammonium iodide]	90 to 91 °C		
CCCCCCCCCCCCCC(=O)OCCC[N+](C)(C)CCCCCC (as salt: iodide) [Compound 12, N-myristoyloxypropyl-N,N-dimethyl-N-hexylammonium iodide]	78 to 79 °C		
CCCCCCCCCCCCCC(=O)OCCC[N+](C)(C)CCCCCCCCCC (as salt: iodide) [Compound 13, N-myristoyloxypropyl-N-decyl-N,N-dimethylammonium iodide]	103 to 104 °C		
CCCCCCCCCCCCCC(=O)OCCOCC[N+](C)(C)C (as salt: iodide) [Compound 15, N-myristoyloxyethoxyethyl-N,N,N-trimethylammonium iodide]	92 to 94 °C		
CCCCCCCCCCCCCCCC(=O)OCCC[N+](C)(C)C [Compound 6, N-palmitoyloxypropyl-N,N,N-trimethylammonium iodide]		0.46 Log	3.54 Log
CCCCCCCCCCCCCC(=O)OCCC[N+](C)(C)CC [Compound 8, N-myristoyloxypropyl-N,N-dimethyl-N-ethylammonium iodide]		1 Log	4 Log
CCCCCCCCCCCCCC(=O)OCCC[N+](C)(C)CCC [Compound 9, N-myristoyloxypropyl-N,N-dimethyl-N-propylammonium iodide]		3.69 Log	4 Log
CCCCCCCCCCCCCC(=O)OCCC[N+](C)(C)CCCCC [Compound 11, N-myristoyloxypropyl-N,N-dimethyl-N-pentylammonium iodide]		3.69 Log	3.69 Log
CCCCCCCCCCCCCC(=O)OCCC[N+](C)(C)CCCCCC [Compound 12, N-myristoyloxypropyl-N,N-dimethyl-N-hexylammonium iodide]		3.54 Log	3.54 Log
